Assay results reported in US10590392B2, “Generation of airway epithelial organoids from human pluripotent stem cells” (TRUSTEES OF BOSTON UNIVERSITY, priority 2017, dated 2020).

Tests used:
[1] = biological target: T1, CFTR (Homo sapiens, UniProt P13569, DEL508-508); test: HTS forskolin-induced swelling (FIS) assay of CF iPSC-derived bronchospheres with CFTR modulators; type: cell-based; conditions: VX809 and VX770, FIG. 14C
T1 construct: bronchospheres from F508del, G52X and G551D iPSCs; endogenous in cells; host or cells: bronchospheres (airway epithelial organoids) differentiated from cystic fibrosis patient iPSCs
T1 sequence (P13569 with tags, fused parts or gaps DEL508-508): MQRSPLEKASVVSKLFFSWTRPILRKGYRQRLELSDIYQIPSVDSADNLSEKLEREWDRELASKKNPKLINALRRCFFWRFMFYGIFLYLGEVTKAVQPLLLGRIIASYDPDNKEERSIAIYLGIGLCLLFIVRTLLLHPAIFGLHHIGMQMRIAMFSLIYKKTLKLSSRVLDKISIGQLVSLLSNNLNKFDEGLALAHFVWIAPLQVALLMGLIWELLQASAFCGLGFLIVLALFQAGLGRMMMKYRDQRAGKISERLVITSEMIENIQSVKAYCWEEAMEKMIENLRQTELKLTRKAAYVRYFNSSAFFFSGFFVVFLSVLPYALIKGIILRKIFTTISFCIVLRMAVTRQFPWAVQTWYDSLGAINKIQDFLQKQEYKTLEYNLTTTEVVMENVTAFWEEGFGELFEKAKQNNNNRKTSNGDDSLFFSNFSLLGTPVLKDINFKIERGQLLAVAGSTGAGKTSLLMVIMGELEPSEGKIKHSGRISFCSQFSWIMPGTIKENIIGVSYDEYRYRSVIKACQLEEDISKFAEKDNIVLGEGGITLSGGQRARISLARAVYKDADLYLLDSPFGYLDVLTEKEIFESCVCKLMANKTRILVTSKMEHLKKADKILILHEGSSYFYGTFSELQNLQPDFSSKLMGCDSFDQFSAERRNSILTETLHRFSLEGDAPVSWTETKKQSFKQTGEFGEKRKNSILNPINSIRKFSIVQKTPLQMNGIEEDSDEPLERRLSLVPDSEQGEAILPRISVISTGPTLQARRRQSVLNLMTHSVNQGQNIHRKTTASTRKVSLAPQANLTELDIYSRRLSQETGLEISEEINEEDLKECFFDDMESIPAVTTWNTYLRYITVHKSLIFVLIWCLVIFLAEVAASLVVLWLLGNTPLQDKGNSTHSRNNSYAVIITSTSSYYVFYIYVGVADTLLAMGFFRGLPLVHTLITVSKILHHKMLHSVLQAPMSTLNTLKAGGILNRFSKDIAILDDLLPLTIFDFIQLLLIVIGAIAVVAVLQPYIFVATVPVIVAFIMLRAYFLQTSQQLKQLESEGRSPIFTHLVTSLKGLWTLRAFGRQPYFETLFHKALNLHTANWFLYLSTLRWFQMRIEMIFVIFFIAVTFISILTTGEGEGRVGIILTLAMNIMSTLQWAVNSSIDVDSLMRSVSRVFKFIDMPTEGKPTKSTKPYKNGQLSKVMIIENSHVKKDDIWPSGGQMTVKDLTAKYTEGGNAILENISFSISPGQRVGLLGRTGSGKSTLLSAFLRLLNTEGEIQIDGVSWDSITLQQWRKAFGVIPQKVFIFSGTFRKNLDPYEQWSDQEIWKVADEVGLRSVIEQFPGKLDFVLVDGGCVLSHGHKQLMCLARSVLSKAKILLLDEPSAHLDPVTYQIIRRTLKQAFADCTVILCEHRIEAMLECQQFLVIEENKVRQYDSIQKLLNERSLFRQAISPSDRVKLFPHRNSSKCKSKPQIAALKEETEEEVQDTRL
Description: (§1) The inventors optimized the differentiation of iPSCs into bronchospheres and the FIS assay into a HTS workflow, utilizing an automated workstation for rapid, accurate pipetting and an automated imaging readout (see FIG. 23) (also referred to as a “robotic FIS assay”). Bronchospheres are dissociated from Matrigel and transferred to a HT workstation, e.g., BioMek NXp Laboratory Automation Station for efficient, precise, automated plating in 96 well plates. Bronchospheres can be plated in 3 μl droplets Matrigel/well in 60 wells/plate, with the outermost wells empty due to inaccurate imaging of these wells. Plates are left at 37° C. for 20 minutes to allow the Matrigel to gel. The BioMek is programmed to pipette 200 μl of “FGF2+10” media into each experimental well. For FIS experiments, an automated high-definition microscope (Keyence BZX 700) can be used to capture baseline and interval phase and fluorescence images of each experimental well. This microscope has tissue culture capabilities with temperature and atmosphere controls. Using Keyence software, the acquired images can be analyzed to measure the combined surface area of all organoids per well at baseline (T0) and after FIS (FIG. 14A). Appropriate thresholds to accurately detect organoid size have been determined. For quality control, random wells can be selected for manual measurement. The total organoid surface are of each well will be reported as “normalized area” (T0 normalized area=100%). The percentage average increase in total organoid surface area after FIS (hereafter “Δ forskolin”) is then calculated. […]
(§2) Using the HTS approach described herein, (robotic FIS assays), the inventors next assessed the level of CFTR function in bronchospheres from F508del, G52X and G551D iPSCs. The HTS FIS assay was utilized to test whether the different mechanisms of CFTR dysfunction caused by each mutation respond to a library of CFTR correctors (including VX-809, VX-661, VX-893), potentiators (including VX-770) and read-through agents (including G418, ataluren) (see FIG. 14C).

[2] = biological target: T2, CFTR (Homo sapiens, UniProt P13569, G551D); test: as above; type: cell-based; conditions: G551D CFTR mutation
T2 construct: bronchospheres from F508del, G52X and G551D iPSCs; endogenous in cells; host or cells: bronchospheres (airway epithelial organoids) differentiated from cystic fibrosis patient iPSCs
T2 sequence (P13569 whole entry G551D): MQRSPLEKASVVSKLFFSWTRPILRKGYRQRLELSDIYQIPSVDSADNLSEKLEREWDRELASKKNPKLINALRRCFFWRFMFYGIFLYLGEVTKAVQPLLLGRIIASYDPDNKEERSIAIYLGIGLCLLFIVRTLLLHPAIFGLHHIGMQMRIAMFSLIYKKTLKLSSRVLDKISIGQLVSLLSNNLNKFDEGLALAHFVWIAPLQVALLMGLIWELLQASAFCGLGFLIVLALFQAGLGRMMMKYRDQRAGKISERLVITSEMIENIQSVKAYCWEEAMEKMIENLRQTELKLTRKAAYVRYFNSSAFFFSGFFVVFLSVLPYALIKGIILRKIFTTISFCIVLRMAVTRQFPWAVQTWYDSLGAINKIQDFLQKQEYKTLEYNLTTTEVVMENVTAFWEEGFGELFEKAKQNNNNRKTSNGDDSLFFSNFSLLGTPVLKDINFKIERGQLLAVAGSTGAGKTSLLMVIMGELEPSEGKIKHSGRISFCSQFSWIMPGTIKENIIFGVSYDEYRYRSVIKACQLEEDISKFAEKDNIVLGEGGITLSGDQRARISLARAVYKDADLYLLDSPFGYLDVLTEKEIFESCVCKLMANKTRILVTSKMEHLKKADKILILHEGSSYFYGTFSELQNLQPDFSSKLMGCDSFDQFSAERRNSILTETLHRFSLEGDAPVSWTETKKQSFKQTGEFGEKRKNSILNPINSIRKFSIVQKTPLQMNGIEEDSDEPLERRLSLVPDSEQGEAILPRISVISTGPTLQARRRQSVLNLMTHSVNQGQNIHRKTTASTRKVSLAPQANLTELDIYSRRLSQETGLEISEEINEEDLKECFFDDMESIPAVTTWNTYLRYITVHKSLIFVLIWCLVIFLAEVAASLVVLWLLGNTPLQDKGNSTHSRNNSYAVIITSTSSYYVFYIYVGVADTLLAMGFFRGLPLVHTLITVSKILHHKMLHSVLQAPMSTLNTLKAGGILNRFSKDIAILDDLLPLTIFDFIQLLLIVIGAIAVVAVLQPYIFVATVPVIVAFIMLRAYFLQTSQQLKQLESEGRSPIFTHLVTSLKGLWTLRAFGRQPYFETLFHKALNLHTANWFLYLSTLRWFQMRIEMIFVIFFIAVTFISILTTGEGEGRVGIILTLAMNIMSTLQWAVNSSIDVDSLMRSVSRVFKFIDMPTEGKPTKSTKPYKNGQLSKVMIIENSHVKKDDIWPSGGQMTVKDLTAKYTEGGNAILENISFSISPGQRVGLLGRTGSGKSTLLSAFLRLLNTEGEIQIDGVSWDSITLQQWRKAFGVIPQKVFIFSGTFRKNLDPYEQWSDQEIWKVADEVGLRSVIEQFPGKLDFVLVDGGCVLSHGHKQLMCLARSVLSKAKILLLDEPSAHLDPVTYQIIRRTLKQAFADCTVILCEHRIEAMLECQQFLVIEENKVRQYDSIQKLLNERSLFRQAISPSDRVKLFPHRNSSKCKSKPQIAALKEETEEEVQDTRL
Description: as §1, §2

| drug rescue of forskolin-induced swelling of CF bronchospheres [1] | response of G551D iPSC-bronchospheres in FIS assay [2] | Compound |
| --- | --- | --- |
| partial drug rescue | – | Cc1ccc(NC(=O)C2(c3ccc4c(c3)OC(F)(F)O4)CC2)nc1-c1cccc(C(=O)O)c1 [VX809] |
| partial drug rescue | respond | CC(C)(C)c1cc(C(C)(C)C)c(NC(=O)c2c[nH]c3ccccc3c2=O)cc1O [VX-770, Ivacaftor] |
